Reference: patent publication US20240016781A1, “TREATMENT OF KRAS MUTANT CANCERS” (MEI Pharma, Inc., priority 2020, published 2024)
Where two headings read alike, the source gives them in different places.

Assays:
Assay in all cases: 72-hour CellTiter-Glo 2.0 growth inhibition screen (single agent, 9x9 combination dose matrix)
Assay type in all cases: cell-based
HPAF-II = system: HPAF-II
Experimental: (§1) Growth inhibition was determined using a 72-hour CellTiter-Glo®2.0 proliferation assay. Combination format was a 9×9 dose matrix. Six of the 20 cell lines received the original two combinations whilst the remaining 14 cell lines received two additional combinations resulting in four combinations in total. Results have been supplied as both Chalice Analyzer files (.mcc) and raw luminescence data.
(§2) Cell lines that have been preserved in liquid nitrogen are thawed and expanded in growth media (see Appendix I). Once cells have reached expected doubling times, screening begins. Cells are seeded in 25 μl of growth media in black 384-well tissue culture treated plates at 500 cells per well (as noted in Analyzer). Cells are equilibrated in assay plates via centrifugation and placed at 37° C. 5% CO2 for twenty-four hours before treatment. […] Compounds are transferred to assay plates using and Echo acoustic liquid handling system. […] of each compound was added at the appropriate concentration for all combination dose points. Therefore, final assay volume would be 25.05 μl. Assay plates are incubated with compound for 3 days and are then analyzed using CellTiter-Glo 2.0. All data points are collected via automated processes and are subject to quality control and analyzed.
(§3) If T≥V_0:100*(1−(T−V_0)/(V−V_0)) • where T is the signal measure for a test article, V is the untreated/vehicle-treated control measure, and Vo is the untreated/vehicle control measure at time zero (also colloquially referred as TO plates). This formula is derived from the Growth Inhibition calculation used in the National Cancer Institute's NCI-60 high throughput screen. For the purposes of this disclosure, all data analysis was performed in Growth Inhibition (except where noted).
(§4) Inhibition is also provided as a measure of cell viability. […] Inhibition of 100% represents no doubling of cell numbers during the treatment window. Both cytostatic and cytotoxic treatments can yield an Inhibition percentage of 100%. Inhibition percentage is calculated as the following: […]
(§5) The fractional inhibition for each component agent and combination point in the matrix is calculated relative to the median of all untreated/vehicle-treated control wells. The Synergy Score equation integrates the experimentally-observed activity volume at each point in the matrix in excess of a model surface numerically derived from the activity of the component agents using the Loewe model for additivity. Additional terms in the Synergy Score equation (above) are used to normalize for various dilution factors used for individual agents and to allow for comparison of synergy scores across an entire experiment. The inclusion of positive inhibition gating or an Idata multiplier removes noise near the zero-effect level, and biases results for synergistic interactions at that occur at high activity levels. Combinations with higher maximum Growth Inhibition (GI) effects or those which are synergistic at low concentrations will have higher Synergy Scores.
(§6) The CI is a rough estimate of how much drug was needed in combination relative to the single agent doses required to achieve the chosen effect level. CI values in the range of 0.5-0.7 are typical for in vitro measurements of current clinical combinations. The CI error (σCI) is calculated using standard error propagation through the CI calculation based on the isobologram errors. In the Chalice Analyzer, the Best CI is reported from the many CI values calculated for each Icut crossing combination. Among all the measured CI values, the one with the largest single-to-noise level (1−CI)/σCI is reported as the Best CI. Best CI Level is the effect level from which the CI is calculated.

NCI-H358 = settings: for EC50: NCI-H358, 72 h
Experimental: as §1, §2, §3, §4, §5, §6

SW48 KRAS (G12D/+) = settings: for EC50: SW48, 72 h, read-out: EC50
Experimental: as §1, §2, §3, §4, §5, §6

SW48 = settings: for EC50: SW48, 72 h
Experimental: as §1, §2, §3, §4, §5, §6

TOV-21G = system: TOV-21G
Experimental: as §1, §2, §3, §4, §5, §6

[1] = HPAF-II (KRAS G12D), enhancer + MEI-522 (Voruciclib), 72 h
[2] = enhancer combined with MEI-522 (Voruciclib), HPAF-II (Pancreas), 72 hours, inhibition data
[3] = NCl-H358 (KRAS G12C), enhancer + MEI-522 (Voruciclib), 72 h
[4] = enhancer combined with MEI-522 (Voruciclib), NCl-H358 (Lung), 72 hours, inhibition data
[5] = Homo sapiens, SW48 KRAS (G12D/+), Colorectal, Additional Single Agent Responses (inhibition, % I), 72 h
[6] = Homo sapiens, SW48 KRAS (G12D/+), Colorectal, growth inhibition (GI) curve, single agent, 72 h
[7] = SW48 KRAS (G12D/+), enhancer + MEI-522 (Voruciclib), 72 h
[8] = enhancer combined with MEI-522 (Voruciclib), SW48 KRAS (G12D/+) (Colorectal), 72 hours, inhibition data
[9] = Homo sapiens, SW48, Colorectal, Additional Single Agent Responses (inhibition, % I), 72 h
[10] = Homo sapiens, SW48, Colorectal, growth inhibition (GI) curve, single agent, 72 h
[11] = SW48 (KRAS WT), enhancer + MEI-522 (Voruciclib), 72 h
[12] = enhancer combined with MEI-522 (Voruciclib), SW48 (Colorectal), 72 hours, inhibition data
[13] = TOV-21G (KRAS G13C), enhancer + MEI-522 (Voruciclib), 72 h
[14] = enhancer combined with MEI-522 (Voruciclib), TOV-21G (Ovary), 72 hours, inhibition data

EC50 (NCI-H358; Homo sapiens, NCl-H358, Lung, Additional Single Agent Responses (inhibition, % I), 72 h): 16.7 nM
EC50 (NCI-H358; Homo sapiens, NCl-H358, Lung, growth inhibition (GI) curve, single agent, 72 h): 18.2 nM
IC50 (NCI-H358; Homo sapiens, NCI-H358, NCl-H358, Lung, Additional Single Agent Responses (inhibition, % I), 72 h): 20.3 nM
GI50 (NCI-H358; Homo sapiens, NCI-H358, NCl-H358, Lung, growth inhibition (GI) curve, single agent, 72 h): 18.3 nM
EC50 (SW48 KRAS (G12D/+); [5]): 14 nM
EC50 (SW48 KRAS (G12D/+); [6]): 15.7 nM
IC50 (SW48 KRAS (G12D/+); [5]): 17.8 nM
GI50 (SW48 KRAS (G12D/+); [6]): 13.9 nM
EC50 (SW48; [9]): 13.8 nM
EC50 (SW48; [10]): 15.4 nM
IC50 (SW48; [9]): 14.3 nM
GI50 (SW48; [10]): 13.4 nM
SMILES: CN1CCN(c2ccc(OC(F)(F)F)c(Nc3ncc4c(n3)-c3c(c(C(N)=O)nn3CCO)CC4)c2)CC1 [Onvansertib]
Best CI (HPAF-II; [1]): 0.70
Bliss Volume (HPAF-II; [1]): −0.18
HSA volume (HPAF-II; [1]): 0.48
Loewe Volume (HPAF-II; [1]): −0.22
Synergy Score (HPAF-II; [1]): 1.29
Response Area (HPAF-II; HPAF-II, Pancreas, Additional Single Agent Responses (inhibition, % I), 72 h): 2.97
Response Area (HPAF-II; HPAF-II, Pancreas, growth inhibition (GI), AUC, single agent, 72 h): 3.98
EC50 (HPAF-II; Homo sapiens, HPAF-II, 72 h, Pancreas, Additional Single Agent Responses (inhibition, % I)): 20.9 nM
EC50 (HPAF-II; Homo sapiens, HPAF-II, 72 h, Pancreas, growth inhibition (GI) curve, single agent): 21 nM
IC50 (HPAF-II; Homo sapiens, HPAF-II, Pancreas, Additional Single Agent Responses (inhibition, % I), 72 h): 35.9 nM
Emax (HPAF-II; Homo sapiens, HPAF-II, Pancreas, Additional Single Agent Responses, 72 h, read-out: Max Response (% I)): 65%
GI50 (HPAF-II; Homo sapiens, HPAF-II, Pancreas, growth inhibition (GI) curve, single agent, 72 h): 24.2 nM
Emax (HPAF-II; Homo sapiens, HPAF-II, Pancreas, growth inhibition (GI), single agent, 72 h, read-out: Max Response (% GI)): 87%
Best CI (HPAF-II; [2]): 0.85
Bliss Volume (HPAF-II; [2]): −1.20
HSA volume (HPAF-II; [2]): 0.37
Loewe Volume (HPAF-II; [2]): −0.12
Synergy Score (HPAF-II; [2]): 0.74
Best CI Level (HPAF-II; enhancer combined with MEI-522 (Voruciclib), HPAF-II (Pancreas), 72 hours, inhibition data, unit assumed): 20%
Emax (NCI-H358; Homo sapiens, NCI-H358, NCl-H358, Lung, Additional Single Agent Responses, 72 h, read-out: Max Response (% I)): 82%
Emax (NCI-H358; Homo sapiens, NCI-H358, NCl-H358, Lung, growth inhibition (GI), single agent, 72 h, read-out: Max Response (% GI)): 127%
Best CI (NCI-H358; [3]): 0.27
Bliss Volume (NCI-H358; [3]): −1.00
HSA volume (NCI-H358; [3]): −5.36
Loewe Volume (NCI-H358; [3]): −3.73
Synergy Score (NCI-H358; [3]): 6.46
Response Area (NCI-H358; NCl-H358, Lung, Additional Single Agent Responses (inhibition, % I), 72 h): 3.36
Response Area (NCI-H358; NCl-H358, Lung, growth inhibition (GI), AUC, single agent, 72 h): 4.69
Best CI (NCI-H358; [4]): 0.38
Best CI Level (NCI-H358; [4]): 75
Bliss Volume (NCI-H358; [4]): −3.69
HSA volume (NCI-H358; [4]): −3.63
Loewe Volume (NCI-H358; [4]): −3.23
Synergy Score (NCI-H358; [4]): 1.36
Emax (SW48 KRAS (G12D/+); Homo sapiens, SW48 KRAS (G12D/+), Colorectal, Additional Single Agent Responses, 72 h, read-out: Max Response (% I)): 92%
Emax (SW48 KRAS (G12D/+); Homo sapiens, SW48 KRAS (G12D/+), Colorectal, growth inhibition (GI), single agent, 72 h, read-out: Max Response (% GI)): 168%
Response Area (SW48 KRAS (G12D/+); SW48 KRAS (G12D/+), Colorectal, Additional Single Agent Responses (inhibition, % I), 72 h): 3.73
Response Area (SW48 KRAS (G12D/+); SW48 KRAS (G12D/+), Colorectal, growth inhibition (GI), AUC, single agent, 72 h): 5.57
Best CI (SW48 KRAS (G12D/+); [7]): 0.39
Bliss Volume (SW48 KRAS (G12D/+); [7]): 5.34
HSA volume (SW48 KRAS (G12D/+); [7]): −1.32
Loewe Volume (SW48 KRAS (G12D/+); [7]): 1.06
Synergy Score (SW48 KRAS (G12D/+); [7]): 8.15
Best CI (SW48 KRAS (G12D/+); [8]): 0.51
Bliss Volume (SW48 KRAS (G12D/+); [8]): −0.39
HSA volume (SW48 KRAS (G12D/+); [8]): −0.28
Loewe Volume (SW48 KRAS (G12D/+); [8]): 0.65
Synergy Score (SW48 KRAS (G12D/+); [8]): 2.12
Best CI Level (SW48 KRAS (G12D/+); enhancer combined with MEI-522 (Voruciclib), SW48 KRAS (G12D/+) (Colorectal), 72 hours, inhibition data, unit assumed): 20%
Emax (SW48; Homo sapiens, SW48, Colorectal, Additional Single Agent Responses, 72 h, read-out: Max Response (% I)): 95%
Emax (SW48; Homo sapiens, SW48, Colorectal, growth inhibition (GI), single agent, 72 h, read-out: Max Response (% GI)): 177%
Best CI (SW48; [11]): 0.72
Bliss Volume (SW48; [11]): 6.27
HSA volume (SW48; [11]): −3.43
Loewe Volume (SW48; [11]): −1.93
Synergy Score (SW48; [11]): 7.50
Response Area (SW48; SW48, Colorectal, Additional Single Agent Responses (inhibition, % I), 72 h): 4.36
Response Area (SW48; SW48, Colorectal, growth inhibition (GI), AUC, single agent, 72 h): 7.09
Best CI (SW48; [12]): 0.76
Bliss Volume (SW48; [12]): −0.78
HSA volume (SW48; [12]): −0.51
Loewe Volume (SW48; [12]): −0.74
Synergy Score (SW48; [12]): 1.28
Best CI Level (SW48; enhancer combined with MEI-522 (Voruciclib), SW48 (Colorectal), 72 hours, inhibition data, unit assumed): 20%
EC50 (TOV-21G; Homo sapiens, TOV21G, 72 h, TOV-21G, Ovary, Additional Single Agent Responses (inhibition, % I)): 28.1 nM
EC50 (TOV-21G; Homo sapiens, TOV21G, 72 h, TOV-21G, Ovary, growth inhibition (GI) curve, single agent): 34.2 nM
IC50 (TOV-21G; Homo sapiens, TOV21G, TOV-21G, Ovary, Additional Single Agent Responses (inhibition, % I), 72 h): 31.6 nM
Emax (TOV-21G; Homo sapiens, TOV21G, TOV-21G, Ovary, Additional Single Agent Responses, 72 h, read-out: Max Response (% I)): 86%
GI50 (TOV-21G; Homo sapiens, TOV21G, TOV-21G, Ovary, growth inhibition (GI) curve, single agent, 72 h): 26.5 nM
Emax (TOV-21G; Homo sapiens, TOV21G, TOV-21G, Ovary, growth inhibition (GI), single agent, 72 h, read-out: Max Response (% GI)): 143%
Best CI (TOV-21G; [13]): 0.40
Bliss Volume (TOV-21G; [13]): 5.55
HSA volume (TOV-21G; [13]): −0.24
Loewe Volume (TOV-21G; [13]): −0.71
Synergy Score (TOV-21G; [13]): 1.56
Response Area (TOV-21G; TOV-21G, Ovary, Additional Single Agent Responses (inhibition, % I), 72 h): 3.84
Response Area (TOV-21G; TOV-21G, Ovary, growth inhibition (GI), AUC, single agent, 72 h): 6.09
Best CI (TOV-21G; [14]): 0.56
Best CI Level (TOV-21G; [14]): 30
Bliss Volume (TOV-21G; [14]): 0.52
HSA volume (TOV-21G; [14]): 0.33
Loewe Volume (TOV-21G; [14]): 0.43
Synergy Score (TOV-21G; [14]): 0.98
